Experimental data: patent publication US20040126325A1, “Medicinal aerosol solution formulation products with improved chemical stability” (priority 2002, published 2004)

Assays:
[1] = Stability of Budesonide solution formulations: recovery of budesonide after storage; assay type: physicochemical
Protocol: Cans of Budesonide in solution according to the following formulation were manufactured: […]
Budesonide 400 mg (200 mcg/shot)
Anodized and lacquered cans and non ethanol extracted valves were utilized. The cans were put on stability at 50° C. (inverted)
Cans with the same formulation were prepared and in this case ethanol extracted valves were utilized.

[2] = Stability of Budesonide solution formulations: determination of degradation products (related substances); assay type: physicochemical
Protocol: Two cans of anodized aluminum prepared as per example 2 were submitted to the determination of degradation products of the active ingredient.
It was noticed in this way that after a lag time of 6 months at 40° C. the degradation rate increases with the same pattern seen in the first example. […] An explanation of the process is that peroxides may leach into the solution after a while, thus starting a radicalic degradation of Budesonide.

With `CCCC1O[C@@H]2C[C@H]3[C@@H]4CCC5=CC(=O)C=C[C@]5(C)[C@H]4[C@@H](O)C[C@]3(C)[C@]2(C(=O)CO)O1` (stereo partly shown) [Budesonide] the Degradation observed ([1]; anodized and lacquered cans, non ethanol extracted valves, 50° C. inverted) was “high degree of degradation”, the “Stability of the solution formulation” value ([1]; ethanol extracted valves, compared with non extracted valves (Example 1)) was “much higher stability” and the “Lag time after which the degradation rate increases” value ([2]; 40° C., anodized aluminum cut edge cans, ethanol extracted valves, inverted, does not occur if stored upright) was 6 months. For the same compound, the “Stability of the solution” value ([2]; finishing of the cans changed from cut edge to rolled neck) was “greatly increased”.
